Measured values as given in patent US4701448A, “Metal salt of organic phosphate and an antihyperlipemic agent containing the same” (Asahi Denka Kogyo Kabushiki Kaisha, priority 1985, dated 1987).
Read-outs that look alike come from different tables or passages of the source.

Columns and labels:
[1] = Absorbability and effect (statement in words)
Acidity (pKa) of CB3A = assay type: physicochemical
mouse = test: Acute toxicity, mouse; assay type: in vivo
Text: (§1) The acute toxicity of the metal salt of CB3A and of CK3A was examined by orally or peritoneally administrating an aqueous solution or dispersion thereof the results are shown in Table 2.
(§2) a . . . per os (oral administration)
(§3) b . . . intraperitoneal injection

[2] = Stability, 5 weeks at 45° C. and humidity of 80% (HPLC remaining rate); assay type: physicochemical; details: after 5 weeks, humidity of 80%, 50400 min
Procedure: One gram each of CB3A, CK3A and various metal salts thereof was placed in a beaker and the beaker was allowed to stand for 5 weeks in a constant temperature and humidity bath controlled at a temperature of 45° C. and a humidity of 80%. After 5 weeks, a remaining rate of the compound was analyzed quantitatively with a high performance liquid chromatography "Tri rotar" manufactured by Nippon Bunko K. K. (Japan).
A0 = initial amount of the compound prior to standing in the constan
temperature and humidity bath
A1 = final amount of the compound after 5 weeks

rat = test: Acute toxicity, rat; assay type: in vivo
Text: as §1, §2, §3

serum cholesterol = test: Serum cholesterol lowering activity, oral, rabbit, 5 successive days; assay type: in vivo; details: two times a day, 5 days
Procedure: (1) Serum cholesterol lowering activity the metal salt of organic phosphate according to the present invention was orally administered to a rabbit (body weight of about 3 Kg) two times a day (at 9:00 a.m. and 4:00 p.m.) for 5 successive days. After 5 days, blood was sampled and the total cholesterol value in serum was measured in a conventional manner.

synthesis of cholesterol = details: in words; Japanese Patent Application No. 165490/1983, J. Antibiotics 38, 328-332 (1985); cited from earlier work
[3] = Water solubility, hygroscopic property and stability (statements in words); assay type: physicochemical; details: listed as CB3K

In the case of `CCC(C)C(=O)OC1CCC=C2C=CC(C)C(CCC(CC(O)CC(=O)O)OP(=O)(O)O)C21` (stereo not shown) [CB3A, reference compound], the absorbability and effect [1] is reported as “unsatisfactory”, the pKa (Acidity (pKa) of CB3A; carboxylic acid group in CB3A molecule, read-out: pKa3) is reported as 7.1 and the pKa (Acidity (pKa) of CB3A; phosphoric acid group in CB3A molecule, read-out: pKa1) is reported as 2.2. For the same compound, the pKa (Acidity (pKa) of CB3A; phosphoric acid group in CB3A molecule, read-out: pKa2) was 5, the LD50 (mouse; intraperitoneal injection) was over 500 mg/kg and the LD50 (mouse; per os (oral administration)) was over 2000 mg/kg. For the same compound, the Remaining rate [2] was 14%, the LD50 (rat; intraperitoneal injection) was over 500 mg/kg and the LD50 (rat; per os (oral administration)) was over 2000 mg/kg. The “Total Serum cholesterol lowering rate” value (serum cholesterol; 1.5 mg/kg/day) was 9.4%, the “Total Serum cholesterol lowering rate” value (serum cholesterol; 6 mg/kg/day) was 23.9% and the “activity of inhibiting the synthesis of cholesterol” value (synthesis of cholesterol) was “strong activity of inhibiting the synthesis of cholesterol”. The stability [3] was “unstable”.
